Test results reported in ChEMBL document CHEMBL3351476, “The discovery of I-BET726 (GSK1324726A), a potent tetrahydroquinoline ApoA1 up-regulator and selective BET bromodomain inhibitor” (J Med Chem, 2014).
In brackets after ≈: the same amount, converted by molar mass.

What was measured:
[1] = target: ATPase family AAA domain-containing protein 2B (Homo sapiens, UniProt Q9ULI0); experiment: Inhibition of human ATAD2B by BROMOscan assay
[2] = target: Protein polybromo-1 (Homo sapiens, UniProt Q86U86); experiment: Inhibition of human PBRM1 bromodomain 1 by BROMOscan assay
[3] = AUC (0 to t) in beagle dog at 3 mg/kg, po; assay type: ADME, organism-based, Canis lupus familiaris; parameters: dose 3 mg/kg, route oral; conditions: plasma
[4] = target: T1, Bromodomain-containing protein 3 (Homo sapiens, UniProt Q15059); experiment: Inhibition of human BRD3 bromodomain 1 by BROMOscan assay
[5] = target: T2, Bromodomain-containing protein 2 (Homo sapiens, UniProt P25440); experiment: Binding affinity to His6-tagged BRD2 (1 to 473 aa) (unknown origin) by SPR method
[6] = Volume of distribution at steady state in Cynomolgus monkey at 1 mg/kg, iv as infusion and 3 mg/kg, po; assay type: ADME, organism-based, Macaca fascicularis; conditions: in vivo, read-out: Vdss
[7] = Solubility of the compound in fasted state simulated intestinal fluid at 125 ug/ml after 16 hrs by HPLC analysis; assay type: ADME; conditions: fasted state simulated intestinal fluid
[8] = target: Bromodomain-containing protein 1 (Homo sapiens, UniProt O95696); experiment: Inhibition of human BRD1 by BROMOscan assay
[9] = Oral bioavailability in rat at 3 mg/kg; assay type: ADME, organism-based; conditions: in vivo
[10] = target: T3, Bromodomain testis-specific protein (Homo sapiens, UniProt Q58F21); experiment: Inhibition of BRDT (unknown origin) by TR-FRET assay
[11] = target: T2, Bromodomain-containing protein 2; experiment: Inhibition of human BRD2 bromodomain 2 by BROMOscan assay
[12] = target: Transcription intermediary factor 1-alpha (Homo sapiens, UniProt O15164); experiment: Inhibition of human TIF1alpha bromodomain by BROMOscan assay
[13] = target: Cytochrome P450 2C19 (Homo sapiens, UniProt P33261); experiment: Inhibition of CYP2C19 (unknown origin) expressed in Escherichia coli bactosomes using 3-butyryl-7-methoxycoumarin as substrate after 10 mins by fluorescence assay; assay type: ADME
[14] = Blood clearance in Balb/c mouse at 10 mg/kg, iv as bolus dose; assay type: ADME, organism-based; parameters: dose 10 mg/kg, route intravenous; conditions: whole blood
[15] = Fraction unbound in human blood by rapid equilibrium dialysis method; assay type: ADME, tissue-based
[16] = target: SWI/SNF-related matrix-associated actin-dependent regulator of chromatin subfamily A member 2 (Homo sapiens, UniProt P51531); experiment: Inhibition of human SMARCA2 by BROMOscan assay
[17] = target: Transcription initiation factor TFIID subunit 1 (Homo sapiens, UniProt P21675); experiment: Inhibition of human TAF1 by BROMOscan assay
[18] = Oral bioavailability in beagle dog at 3 mg/kg; assay type: ADME, organism-based, Canis lupus familiaris; conditions: in vivo
[19] = target: Histone acetyltransferase p300 (Homo sapiens, UniProt Q09472); experiment: Inhibition of human EP300 by BROMOscan assay
[20] = target: T3, Bromodomain testis-specific protein; experiment: Inhibition of human BRDT bromodomain 2 by BROMOscan assay
[21] = target: Bromodomain-containing protein 7 (Homo sapiens, UniProt Q9NPI1); experiment: Inhibition of human BRD7 by BROMOscan assay
[22] = Clearance in dog hepatocytes assessed per gram of tissue at 1 uM by LC-MS/MS analysis; assay type: ADME, cell-based, Canis lupus familiaris, Hepatocyte
[23] = target: T2, Bromodomain-containing protein 2; experiment: Inhibition of human BRD2 bromodomain 1 by BROMOscan assay
[24] = target: T1, Bromodomain-containing protein 3; experiment: Binding affinity to His6-tagged BRD3 (1 to 475 aa) (unknown origin) by SPR method
[25] = target: Bromodomain adjacent to zinc finger domain protein 2B (Homo sapiens, UniProt Q9UIF8); experiment: Inhibition of BAZ2B (unknown origin) by BROMOscan assay
[26] = target: Bromodomain adjacent to zinc finger domain protein 2A (Homo sapiens, UniProt Q9UIF9); experiment: Inhibition of human BAZ2A by BROMOscan assay
[27] = Terminal half life in rat at 1 mg/kg, iv as infusion; assay type: ADME, organism-based; parameters: dose 1 mg/kg, route intravenous; conditions: in vivo, read-out: beta t1/2

T2 sequence (P25440 whole entry, the tested form may be a part): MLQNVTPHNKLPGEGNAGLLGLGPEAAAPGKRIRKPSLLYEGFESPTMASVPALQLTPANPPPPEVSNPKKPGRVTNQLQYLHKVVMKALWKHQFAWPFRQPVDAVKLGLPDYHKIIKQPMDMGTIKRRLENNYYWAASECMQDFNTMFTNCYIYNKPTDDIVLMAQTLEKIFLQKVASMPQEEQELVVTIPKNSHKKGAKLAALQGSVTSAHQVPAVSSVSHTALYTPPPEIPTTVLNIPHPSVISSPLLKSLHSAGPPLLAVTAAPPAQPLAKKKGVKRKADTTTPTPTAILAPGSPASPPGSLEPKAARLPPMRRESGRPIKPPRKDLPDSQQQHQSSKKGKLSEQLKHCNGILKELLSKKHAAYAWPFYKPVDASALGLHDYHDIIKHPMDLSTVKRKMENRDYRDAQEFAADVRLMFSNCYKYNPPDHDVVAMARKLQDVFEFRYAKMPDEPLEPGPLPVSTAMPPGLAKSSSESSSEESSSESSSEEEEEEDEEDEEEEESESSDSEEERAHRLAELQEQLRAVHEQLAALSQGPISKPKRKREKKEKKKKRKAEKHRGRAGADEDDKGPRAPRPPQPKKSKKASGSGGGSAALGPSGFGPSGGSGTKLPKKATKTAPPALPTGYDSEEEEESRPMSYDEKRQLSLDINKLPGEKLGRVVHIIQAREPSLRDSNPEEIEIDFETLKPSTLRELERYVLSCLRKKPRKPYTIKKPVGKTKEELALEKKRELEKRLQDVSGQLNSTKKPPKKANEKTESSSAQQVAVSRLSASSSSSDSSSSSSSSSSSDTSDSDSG
T1 sequence (Q15059 whole entry, the tested form may be a part): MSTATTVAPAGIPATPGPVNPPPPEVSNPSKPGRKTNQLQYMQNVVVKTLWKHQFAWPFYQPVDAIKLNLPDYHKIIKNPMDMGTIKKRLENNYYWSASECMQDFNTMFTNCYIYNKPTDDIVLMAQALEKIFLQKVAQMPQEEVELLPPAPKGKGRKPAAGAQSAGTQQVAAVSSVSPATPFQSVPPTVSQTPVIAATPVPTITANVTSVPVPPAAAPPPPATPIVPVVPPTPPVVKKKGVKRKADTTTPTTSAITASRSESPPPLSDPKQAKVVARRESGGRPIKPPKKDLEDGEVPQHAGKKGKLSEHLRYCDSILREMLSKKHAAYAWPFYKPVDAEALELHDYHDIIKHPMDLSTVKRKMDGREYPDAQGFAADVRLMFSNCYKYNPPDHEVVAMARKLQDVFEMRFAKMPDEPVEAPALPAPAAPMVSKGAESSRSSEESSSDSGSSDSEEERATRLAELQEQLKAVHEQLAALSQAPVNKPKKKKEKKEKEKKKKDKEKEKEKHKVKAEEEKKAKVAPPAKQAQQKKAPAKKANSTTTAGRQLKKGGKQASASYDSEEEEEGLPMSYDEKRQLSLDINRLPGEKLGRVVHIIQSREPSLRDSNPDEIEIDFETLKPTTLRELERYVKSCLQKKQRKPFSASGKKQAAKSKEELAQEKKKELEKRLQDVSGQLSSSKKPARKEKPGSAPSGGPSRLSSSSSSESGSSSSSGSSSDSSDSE
Sequence of Histone acetyltransferase p300 (Q09472 whole entry): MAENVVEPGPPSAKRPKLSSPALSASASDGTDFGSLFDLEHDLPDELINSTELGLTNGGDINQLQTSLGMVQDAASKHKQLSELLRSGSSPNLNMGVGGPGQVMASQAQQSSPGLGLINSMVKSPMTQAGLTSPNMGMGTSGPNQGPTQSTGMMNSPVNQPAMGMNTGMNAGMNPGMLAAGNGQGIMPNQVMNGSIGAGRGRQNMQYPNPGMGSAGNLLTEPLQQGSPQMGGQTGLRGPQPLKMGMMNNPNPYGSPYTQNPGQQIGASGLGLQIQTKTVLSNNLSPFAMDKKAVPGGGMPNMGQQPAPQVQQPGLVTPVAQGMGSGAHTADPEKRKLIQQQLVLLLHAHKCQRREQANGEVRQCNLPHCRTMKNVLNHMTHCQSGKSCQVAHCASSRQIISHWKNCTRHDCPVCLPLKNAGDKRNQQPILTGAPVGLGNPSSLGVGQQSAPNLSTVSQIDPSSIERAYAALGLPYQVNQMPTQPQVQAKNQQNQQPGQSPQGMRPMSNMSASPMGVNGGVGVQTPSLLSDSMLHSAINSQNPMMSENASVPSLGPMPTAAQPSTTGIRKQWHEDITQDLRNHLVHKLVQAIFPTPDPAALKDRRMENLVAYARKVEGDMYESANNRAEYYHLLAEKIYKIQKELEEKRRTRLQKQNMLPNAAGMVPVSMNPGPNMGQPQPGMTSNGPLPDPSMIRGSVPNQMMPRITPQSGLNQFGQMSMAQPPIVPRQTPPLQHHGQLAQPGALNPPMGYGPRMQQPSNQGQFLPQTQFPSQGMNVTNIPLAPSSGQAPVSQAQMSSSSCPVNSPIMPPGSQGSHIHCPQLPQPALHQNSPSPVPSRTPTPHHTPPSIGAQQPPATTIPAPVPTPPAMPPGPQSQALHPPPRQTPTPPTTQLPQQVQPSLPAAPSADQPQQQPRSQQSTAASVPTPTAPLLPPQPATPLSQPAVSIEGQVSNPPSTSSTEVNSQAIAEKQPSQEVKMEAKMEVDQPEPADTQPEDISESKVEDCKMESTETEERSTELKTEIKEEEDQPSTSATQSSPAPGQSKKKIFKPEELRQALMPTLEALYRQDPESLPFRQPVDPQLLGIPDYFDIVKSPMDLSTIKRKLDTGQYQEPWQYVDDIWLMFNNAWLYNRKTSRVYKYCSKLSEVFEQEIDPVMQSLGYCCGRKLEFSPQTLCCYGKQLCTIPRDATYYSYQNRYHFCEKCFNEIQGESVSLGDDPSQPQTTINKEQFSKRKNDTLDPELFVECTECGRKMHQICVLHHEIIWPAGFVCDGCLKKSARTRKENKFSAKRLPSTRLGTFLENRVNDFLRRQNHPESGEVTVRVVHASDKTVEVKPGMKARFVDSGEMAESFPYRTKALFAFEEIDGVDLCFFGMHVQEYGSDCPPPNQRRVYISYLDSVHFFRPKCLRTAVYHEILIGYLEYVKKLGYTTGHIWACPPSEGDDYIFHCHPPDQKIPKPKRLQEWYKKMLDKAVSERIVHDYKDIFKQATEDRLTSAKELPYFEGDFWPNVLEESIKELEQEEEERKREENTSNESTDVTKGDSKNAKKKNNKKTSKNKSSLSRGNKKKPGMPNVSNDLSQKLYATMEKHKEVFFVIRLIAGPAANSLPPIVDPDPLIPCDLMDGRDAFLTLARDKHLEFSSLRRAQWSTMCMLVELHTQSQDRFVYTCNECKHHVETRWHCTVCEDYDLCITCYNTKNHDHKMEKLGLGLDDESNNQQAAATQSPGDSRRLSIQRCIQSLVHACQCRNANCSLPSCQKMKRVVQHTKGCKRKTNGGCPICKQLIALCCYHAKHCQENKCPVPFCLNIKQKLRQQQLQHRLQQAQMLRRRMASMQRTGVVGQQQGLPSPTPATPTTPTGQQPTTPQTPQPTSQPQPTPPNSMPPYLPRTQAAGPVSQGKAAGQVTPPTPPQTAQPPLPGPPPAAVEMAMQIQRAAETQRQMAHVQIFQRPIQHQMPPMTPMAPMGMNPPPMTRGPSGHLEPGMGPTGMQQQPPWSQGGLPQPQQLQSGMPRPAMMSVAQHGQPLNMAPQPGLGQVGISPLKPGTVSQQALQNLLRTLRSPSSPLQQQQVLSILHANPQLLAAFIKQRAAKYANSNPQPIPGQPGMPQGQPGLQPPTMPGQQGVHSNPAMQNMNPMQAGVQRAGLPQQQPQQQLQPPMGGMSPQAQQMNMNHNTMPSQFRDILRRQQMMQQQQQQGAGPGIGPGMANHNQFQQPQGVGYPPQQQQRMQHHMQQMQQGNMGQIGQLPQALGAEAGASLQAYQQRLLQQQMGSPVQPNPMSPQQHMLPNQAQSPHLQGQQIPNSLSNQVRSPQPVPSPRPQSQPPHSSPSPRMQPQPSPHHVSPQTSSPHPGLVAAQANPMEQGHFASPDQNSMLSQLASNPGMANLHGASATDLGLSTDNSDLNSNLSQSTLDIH
Sequence of Bromodomain-containing protein 7 (Q9NPI1 whole entry): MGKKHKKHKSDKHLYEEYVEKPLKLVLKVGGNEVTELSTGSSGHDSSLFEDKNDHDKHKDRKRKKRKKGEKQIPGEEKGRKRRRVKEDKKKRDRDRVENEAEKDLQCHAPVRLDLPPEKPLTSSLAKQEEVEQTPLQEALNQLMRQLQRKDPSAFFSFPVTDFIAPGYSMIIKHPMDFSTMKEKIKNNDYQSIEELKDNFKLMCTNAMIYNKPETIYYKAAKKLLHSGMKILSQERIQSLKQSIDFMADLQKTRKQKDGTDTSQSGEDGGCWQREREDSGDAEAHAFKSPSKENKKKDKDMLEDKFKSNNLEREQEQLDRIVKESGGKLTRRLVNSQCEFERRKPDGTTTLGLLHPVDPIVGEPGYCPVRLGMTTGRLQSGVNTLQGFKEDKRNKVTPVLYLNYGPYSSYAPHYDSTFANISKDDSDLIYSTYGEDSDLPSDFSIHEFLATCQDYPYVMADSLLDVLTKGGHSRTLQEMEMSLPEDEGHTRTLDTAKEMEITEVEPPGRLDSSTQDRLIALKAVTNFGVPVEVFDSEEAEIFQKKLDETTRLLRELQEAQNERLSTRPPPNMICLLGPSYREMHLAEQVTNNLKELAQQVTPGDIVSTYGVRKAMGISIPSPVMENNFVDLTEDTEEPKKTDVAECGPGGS
Sequence of Cytochrome P450 2C19 (P33261 whole entry): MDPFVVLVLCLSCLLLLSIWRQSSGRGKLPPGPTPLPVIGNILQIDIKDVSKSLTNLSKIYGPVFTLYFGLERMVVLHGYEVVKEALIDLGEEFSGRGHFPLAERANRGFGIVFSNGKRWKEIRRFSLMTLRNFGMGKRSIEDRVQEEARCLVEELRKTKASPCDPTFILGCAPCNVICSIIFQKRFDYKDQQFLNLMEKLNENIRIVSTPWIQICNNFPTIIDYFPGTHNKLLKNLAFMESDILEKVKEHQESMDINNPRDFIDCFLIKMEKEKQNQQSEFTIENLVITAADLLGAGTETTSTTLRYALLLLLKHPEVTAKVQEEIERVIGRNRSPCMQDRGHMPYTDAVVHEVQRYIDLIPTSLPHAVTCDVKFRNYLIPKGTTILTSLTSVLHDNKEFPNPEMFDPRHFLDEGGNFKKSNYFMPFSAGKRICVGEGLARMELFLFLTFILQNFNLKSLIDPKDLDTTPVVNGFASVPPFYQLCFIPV

## CC(=O)N1c2ccc(-c3ccc(C(=O)O)cc3)cc2[C@H](Nc2ccc(Cl)cc2)C[C@@H]1C
[1]
  IC50: > 31.6 µM
[2]
  IC50: 0.631 µM
[3]
  AUC(0-t): 5900 ng·h/mL
[4]
  IC50: 0.000631 µM
[5]
  Kd: 0.025 µM
[6]
  Vd: 1 L/kg
[7]
  solubility at 16 h: 106 µg/mL (≈ 244 µM)
[8]
  IC50: > 20 µM
[9]
  bioavailability: 28%
[10]
  IC50: 0.0501 µM
[11]
  IC50: 0.00316 µM
[12]
  IC50: 10 µM
[13]
  IC50: 12 µM
[14]
  clearance: 3.1 mL/min/kg
[15]
  fraction unbound: 0.017
[16]
  IC50: > 31.6 µM
[17]
  IC50: 31.6 µM
[18]
  bioavailability: 80%
[19]
  IC50: 31.6 µM
[20]
  IC50: 31.6 µM
[21]
  IC50: > 0.00126 µM
[22]
  CLH: < 1.7 mL/min/g
[23]
  IC50: > 31.6 µM
[24]
  Kd: 0.02 µM
[25]
  IC50: > 31.6 µM
[26]
  IC50: > 31.6 µM
[27]
  half-life: > 8 h
